pIC50: −log10 of the molar value.
How the values were obtained:
[1] = biological target: T1, thrombin (Homo sapiens, UniProt P00734); assay: Measurement of the thrombin inhibition in buffer; type: biochemical; details: human thrombin 0.06 nmol/l in Tris buffer pH 7.4, 22° C., substrate Boc-Asp(OBzl)-Pro-Arg-AMC; in some cases means of individual determinations
Procedure: To determine the thrombin inhibition of the substances listed above, a biochemical test system is constructed in which the conversion of a thrombin substrate is used for determining the enzymatic activity of human thrombin. Here, thrombin cleaves aminomethylcoumarin, which is measured fluorescently, from the peptic substrate. The determinations are carried out in microtitre plates.
Substances to be tested are dissolved in various concentrations in dimethyl sulphoxide and incubated for 15 min with human thrombin (0.06 nmol/l dissolved in 50 mmol/l of Tris buffer [C,C,C-tris(hydroxymethyl)aminomethane], 100 mmol/l of sodium chloride, 0.1% BSA [bovine serum albumin], pH 7.4) at 22° C. The substrate (5 μmol/l Boc-Asp(OBzl)-Pro-Arg-AMC from Bachem) is then added. After 30 min of incubation, the sample is excited at a wavelength of 360 nm and the emission is measured at 460 nm. The measured emissions of the test mixtures with test substance are compared to the control mixtures without test substance (only dimethyl sulphoxide instead of test substance in dimethyl sulphoxide) and IC50 values are calculated from the concentration/activity relationships. Representative activity data from this test are given in Table 1 below (in some cases as means of individual determinations): […]

[2] = biological target: T1, thrombin; assay: Thrombin-inhibitory activity in plasma samples (ecarin-activated); type: biochemical; details: citrate plasma, ecarin activation, fluorogenic thrombin substrate; read at about 70% of maximum signal (about 12 min); in some cases means
Procedure: To determine the inhibition of thrombin in plasma samples, plasma prothrombinase is activated by ecarin. Thrombin activity and/or its inhibition by potential inhibitors is/are then measured fluorescently by addition of a substrate.
The substances to be tested are dissolved in various concentrations in dimethyl sulphoxide and diluted with water. In white 96-well flat-bottomed plates, 20 μl of substance dilution are mixed with 20 μl of ecarin solution (ecarin reagent, from Sigma E-0504, final concentration 20 mU per reaction) in Ca buffer (200 mM Hepes+560 mM sodium chloride+10 mM calcium chloride+0.4% PEG) or with 20 μl of Ca buffer (as unstimulated control). Furthermore, 20 μl of fluorogenic thrombin substrate (from Bachem 1-1120, final concentration 50 μmol/l) and 20 μl of citrate plasma (from Octapharma) are added, and the mixture is homogenized well. The plate is measured in a SpectraFluorplus Reader using a 360 nm excitation filter and a 465 nm emission filter every minute over 20 minutes. […] Representative activity data from this test are given in Table 2 below (in some cases as means of individual determinations): […]

Compound | pIC50 [1] | pIC50 [2]
COc1cc(C(=O)N2CC(C)(C)OCC2CF)cn2nc(NCc3cccc(Cl)c3)nc12 (racemic) [Example 12, {2-[(3-Chlorobenzyl)amino]-8-methoxy[1,2,4]triazolo[1,5-a]pyridin-6-yl}[5-(fluoromethyl)-2,2-dimethylmorpholin-4-yl]methanone] | 7.46 | 7.25
COc1cc(C(=O)N2CC(C)OCC2C2CC(O)C2)cn2nc(NCc3cccc(Cl)c3)nc12 (single isomer, unassigned) [Example 3, {2-[(3-Chlorobenzyl)amino]-8-methoxy[1,2,4]triazolo[1,5-a]pyridin-6-yl}[5-(3-hydroxycyclobutyl)-2-methylmorpholin-4-yl]methanone] | 7.15 | 7.15
COc1cc(C(=O)N2CC(C)OCC2C2CC(O)C2)cn2nc(NCc3cccc(Cl)c3)nc12 (single isomer, unassigned) [Example 4, {2-[(3-Chlorobenzyl)amino]-8-methoxy[1,2,4]triazolo[1,5-a]pyridin-6-yl}[5-(3-hydroxycyclobutyl)-2-methylmorpholin-4-yl]methanone] | 8.03 | 7.64
COc1cc(C(=O)N2CC(C)OC[C@H]2C)cn2nc(NC(CF)c3cccc(Cl)c3)nc12 (single isomer, unassigned) [Example 5] | – | 7.06
COc1cc(C(=O)N2CC(C)(C)OCC2CF)cn2nc(NCc3cccc(Cl)c3)nc12 (single isomer, unassigned) [Example 13, {2-[(3-Chlorobenzyl)amino]-8-methoxy[1,2,4]triazolo[1,5-a]pyridin-6-yl}[5-(fluoromethyl)-2,2-dimethylmorpholin-4-yl]methanone] | 6.38 | –
COc1cc(C(=O)N2CC(C)OCC2(C)C)cn2nc(NCc3cccc(Cl)c3)nc12 (single isomer, unassigned) [Example 28] | 6.74 | –
COc1cc(C(=O)N2CC(C)(CCO)OCC2(C)C)cn2nc(NCc3cccc(Cl)c3)nc12 (single isomer, unassigned) [Example 32, {2-[(3-Chlorobenzyl)amino]-8-methoxy[1,2,4]triazolo[1,5-a]pyridin-6-yl}[2-(2-hydroxyethyl)-2,5,5-trimethylmorpholin-4-yl]methanone] | 6.64 | –
COc1cc(C(=O)N2CC(C)(CC(C)O)OCC2(C)C)cn2nc(NCc3cccc(Cl)c3)nc12 (single isomer, unassigned) [Example 38, {2-[(3-Chlorobenzyl)amino]-8-methoxy[1,2,4]triazolo[1,5-a]pyridin-6-yl}[2-(2-hydroxypropyl)-2,5,5-trimethylmorpholin-4-yl]methanone] | 5.55 | –
COc1cc(C(=O)N2CC(C)(C)OCC2CC(C)O)cn2nc(NCc3cccc(Cl)c3)nc12 (single isomer, unassigned) [Example 46, {2-[(3-Chlorobenzyl)amino]-8-methoxy[1,2,4]triazolo[1,5-a]pyridin-6-yl}[5-(2-hydroxypropyl)-2,2-dimethylmorpholin-4-yl]methanone] | 6.72 | –
COc1cc(C(=O)N2CC(C)(C)OCC2CC(C)O)cn2nc(NCc3cccc(Cl)c3)nc12 (single isomer, unassigned) [Example 48, {2-[(3-Chlorobenzyl)amino]-8-methoxy[1,2,4]triazolo[1,5-a]pyridin-6-yl}[5-(2-hydroxypropyl)-2,2-dimethylmorpholin-4-yl]methanone] | 7.41 | –
COc1cc(C(=O)N2CC(C)(CCO)OCC2CF)cn2nc(NCc3cccc(Cl)c3)nc12 (single isomer, unassigned) [Example 51, {2-[(3-Chlorobenzyl)amino]-8-methoxy[1,2,4]triazolo[1,5-a]pyridin-6-yl}[5-(fluoromethyl)-2-(2-hydroxyethyl)-2-methylmorpholin-4-yl]methanone] | 5.46 | –
COc1cc(C(=O)N2CC(C)(CC(C)O)OCC2CF)cn2nc(NCc3cccc(Cl)c3)nc12 (single isomer, unassigned) [Example 57, {2-[(3-Chlorobenzyl)amino]-8-methoxy[1,2,4]triazolo[1,5-a]pyridin-6-yl}[5-(fluoromethyl)-2-(2-hydroxypropyl)-2-methylmorpholin-4-yl]methanone] | 6.00 | –
[2H]C([2H])(C)O[C@@H]1CC(CO)N(C(=O)c2cc(OC)c3nc(NCc4cccc(Cl)c4)nn3c2)C1 (stereo partly drawn) [Example 73, {2-[(3-Chlorobenzyl)amino]-8-methoxy[1,2,4]triazolo[1,5-a]pyridin-6-yl}[(4R)-4-[(1,1-^2H2)ethyloxy]-2-(hydroxymethyl)pyrrolidin-1-yl]methanone] | – | 7.41

Continued by rising pIC50 [1], values first:

pIC50 [1] | pIC50 [2] | Compound
5.92 | – | COc1cc(C(=O)N2CC(C)(CCO)OCC2CF)cn2nc(NCc3cccc(Cl)c3)nc12 (single isomer, unassigned) [Example 52, {2-[(3-Chlorobenzyl)amino]-8-methoxy[1,2,4]triazolo[1,5-a]pyridin-6-yl}[5-(fluoromethyl)-2-(2-hydroxyethyl)-2-methylmorpholin-4-yl]methanone]
6.74 | – | COc1cc(C(=O)N2CC(C)(C)OCC2CC(C)O)cn2nc(NCc3cccc(Cl)c3)nc12 (single isomer, unassigned) [Example 47, {2-[(3-Chlorobenzyl)amino]-8-methoxy[1,2,4]triazolo[1,5-a]pyridin-6-yl}[5-(2-hydroxypropyl)-2,2-dimethylmorpholin-4-yl]methanone]
7.06 | – | COc1cc(C(=O)N2CC(C)OCC2(C)C)cn2nc(NCc3cccc(Cl)c3)nc12 (racemic) [Example 26]
7.09 | – | COc1cc(C(=O)N2CC(C)OCC2CC(C)(C)O)cn2nc(NCc3cccc(Cl)c3)nc12 (single isomer, unassigned) [Example 43, {2-[(3-Chlorobenzyl)amino]-8-methoxy[1,2,4]triazolo[1,5-a]pyridin-6-yl}[5-(2-hydroxy-2-methylpropyl)-2-methylmorpholin-4-yl]methanone]
7.20 | 7.19 | COCC1COC(C)(C)CN1C(=O)c1cc(OC)c2nc(NCc3cccc(Cl)c3)nn2c1 (racemic) [Example 11, {2-[(3-Chlorobenzyl)amino]-8-methoxy[1,2,4]triazolo[1,5-a]pyridin-6-yl}[5-(methoxymethyl)-2,2-dimethylmorpholin-4-yl]methanone]
7.28 | 7.12 | COc1cc(C(=O)N2CC(C)OCC2CCO)cn2nc(NCc3cccc(Cl)c3)nc12 (racemic) [Example 15, {2-[(3-Chlorobenzyl)amino]-8-methoxy[1,2,4]triazolo[1,5-a]pyridin-6-yl}[5-(2-hydroxyethyl)-2-methylmorpholin-4-yl]methanone]
7.43 | 7.27 | COc1cc(C(=O)N2CC(C)OCC2CC(C)(C)O)cn2nc(NCc3cccc(Cl)c3)nc12 (racemic) [Example 42, {2-[(3-Chlorobenzyl)amino]-8-methoxy[1,2,4]triazolo[1,5-a]pyridin-6-yl}[5-(2-hydroxy-2-methylpropyl)-2-methylmorpholin-4-yl]methanone]
7.47 | 7.48 | COc1cc(C(=O)N2CC3CCN3C(=O)C2C)cn2nc(N[C@H](C)c3cccc(Cl)c3)nc12 (single isomer, unassigned) [Example 1]
7.54 | – | COc1cc(C(=O)N2CC(C)OCC2CC(C)(C)O)cn2nc(NCc3cccc(Cl)c3)nc12 (single isomer, unassigned) [Example 44, {2-[(3-Chlorobenzyl)amino]-8-methoxy[1,2,4]triazolo[1,5-a]pyridin-6-yl}[5-(2-hydroxy-2-methylpropyl)-2-methylmorpholin-4-yl]methanone]
7.70 | 7.54 | COc1cc(C(=O)N2CC(C)(C)OCC2(C)CO)cn2nc(NCc3cccc(Cl)c3)nc12 (racemic) [Example 8, {2-[(3-Chlorobenzyl)amino]-8-methoxy[1,2,4]triazolo[1,5-a]pyridin-6-yl}[5-(hydroxymethyl)-2,2,5-trimethylmorpholin-4-yl]methanone]
7.96 | 7.82 | COc1cc(C(=O)N2CC(C)(CCO)OCC2(C)C)cn2nc(NCc3cccc(Cl)c3)nc12 (racemic) [Example 31, {2-[(3-Chlorobenzyl)amino]-8-methoxy[1,2,4]triazolo[1,5-a]pyridin-6-yl}[2-(2-hydroxyethyl)-2,5,5-trimethylmorpholin-4-yl]methanone]
8.06 | 7.60 | COc1cc(C(=O)N2CC(C)(CCO)OC[C@H]2C)cn2nc(NCc3cccc(Cl)c3)nc12 (single isomer, unassigned) [Example 6]

From patent publication US20160108039A1, “TRIAZOLOPYRIDINES AS THROMBIN INHIBITORS FOR THE TREATMENT OF THROMBOEMBOLIC DISEASES” (BAYER PHARMA AKTIENGESELLSCHAFT, priority 2013, published 2016)
